Usually CC50 stands for the concentration at which the toxic effect on the cells reaches its halfway point.

Here are results for 33 compounds from ChEMBL document CHEMBL1201862, “PubChem BioAssay data set” (2004).

Calls of active or inactive are those of the source. For most assays here, no stated cut-off is given here; in the data, actives have a measured EC50 and inactives only a lower limit.

Experiment [1] can be described thus: HEp-2 cell cytotoxicity, dose response, cytotoxicity control for RSV inhibitor project, HTS (AID 2410). It is filed as functional. The conditions noted are these: human respiratory syncytial virus.
Experiment [2] is described as follows: inhibitors of SNCA 5'UTR-driven reporter translation, confirmation, H4 neuroglioma cells, luminescence (AID 1988). Format: functional, cell-based.
A short description of experiment [3]: Luminescence Cell-Based Dose Response HTS to Identify Inhibitors of 5'UTR Stem-Loop Driven Prion Protein mRNA Translation in H4 Neuroglioblastoma Cells. [Related pubchem assays: 1827 (Project Summary), 1813 (Primary HTS)]. It is filed as functional.
A short description of experiment [4]: inhibitors of firefly luciferase expression or activity, dose response, H4 neuroglioma cells, luminescence (AID 1990). It is filed as functional, cell-based.
Experiment [5] deals with T1, Heat shock factor protein 1 (Mus musculus, UniProt P38532).
T1 sequence (P38532 whole entry): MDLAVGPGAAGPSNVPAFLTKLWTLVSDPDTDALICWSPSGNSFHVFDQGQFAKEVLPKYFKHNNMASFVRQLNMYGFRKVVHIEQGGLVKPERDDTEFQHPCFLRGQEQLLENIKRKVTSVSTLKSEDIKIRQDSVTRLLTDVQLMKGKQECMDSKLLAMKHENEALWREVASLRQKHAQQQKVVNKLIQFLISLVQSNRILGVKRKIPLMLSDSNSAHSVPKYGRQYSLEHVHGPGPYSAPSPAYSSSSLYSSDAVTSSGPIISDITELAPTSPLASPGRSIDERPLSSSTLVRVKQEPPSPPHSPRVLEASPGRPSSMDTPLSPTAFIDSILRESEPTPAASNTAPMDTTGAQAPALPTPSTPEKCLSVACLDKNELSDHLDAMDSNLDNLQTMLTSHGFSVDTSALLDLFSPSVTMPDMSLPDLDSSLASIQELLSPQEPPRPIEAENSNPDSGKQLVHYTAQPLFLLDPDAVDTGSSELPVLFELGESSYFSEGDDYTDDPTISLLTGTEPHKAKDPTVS
As to the kind of experiment: inhibition of MG132-induced HSE-luciferase signal, confirmation, cell-based, NIH3T3, luminescence, dose retest (AID 2382).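 Further: NIH3T3 fibroblasts with HSF1-driven luciferase reporter stressed by proteasome inhibitor MG132; luminescence from HSF1-driven luciferase expression after 8 hours of MG132 stress.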 Format: functional.

The nature of experiment [6]: Luminescence Cell-Based Dose Response HTS to Identify Activators of Luciferase Translation or Activity in H4 […] Cells. [Related pubchem assays: 1829 (Project Summary), 1814 (Primary HTS)]. It is filed as functional.
Experiment [7] is described as follows: Luminescence Cell-Based Dose Confirmation HTS to Identify Activators of 5'UTR Stem-Loop Driven Alpha-Synuclein mRNA Translation in H4 Neuroglioblastoma Cells. [Related pubchem assays: 1829 (Project Summary), 1814 (Primary HTS)]. It is filed as functional.
Another experiment concerns H4. The experiment is described as follows: Luminescence Cell-Based Dose Response HTS to Identify Activators of 5'UTR Stem-Loop Driven Prion Protein mRNA Translation in H4 Neuroglioblastoma Cells. [Related pubchem assays: 1829 (Project Summary), 1814 (Primary HTS)]. Format: functional. The conditions noted are these: Homo sapiens.
Experiment [8] is described as follows: NIH-3T3 fibroblast cytotoxicity, dose response, cytotoxicity control, cell-based, fluorescence, Alamar Blue, secondary assay (AID 2327).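 Further: NIH-3T3 mouse fibroblasts cultured with fluconazole at 8 µg/mL.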 Format: functional.
The test system of a further experiment is Streptococcus. As to the kind of experiment: Group A Streptococcus viability loss, dose response, counter-screen for streptokinase expression inhibitor project, luminescence, BacTiterGlo (AID 1915).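 Further: potency for reduction of bacterial viability or growth.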 Format: functional, organism-based. A general note: Counterscreens check selectivity or assay interference.
The subject of experiment [9] is Streptococcus sp. 'group A'. As to the kind of experiment: growth inhibition of control SK(-) GAS strain, dose response, counter-screen for streptokinase expression inhibitor project, luminescence, kanamycin, BacTiterGlo, confirmation (AID 1900). Format: functional, organism-based.
In another experiment the target is T2, Streptokinase A (Streptococcus pyogenes serotype M1, UniProt P10520).
T2 sequence (P10520 whole entry): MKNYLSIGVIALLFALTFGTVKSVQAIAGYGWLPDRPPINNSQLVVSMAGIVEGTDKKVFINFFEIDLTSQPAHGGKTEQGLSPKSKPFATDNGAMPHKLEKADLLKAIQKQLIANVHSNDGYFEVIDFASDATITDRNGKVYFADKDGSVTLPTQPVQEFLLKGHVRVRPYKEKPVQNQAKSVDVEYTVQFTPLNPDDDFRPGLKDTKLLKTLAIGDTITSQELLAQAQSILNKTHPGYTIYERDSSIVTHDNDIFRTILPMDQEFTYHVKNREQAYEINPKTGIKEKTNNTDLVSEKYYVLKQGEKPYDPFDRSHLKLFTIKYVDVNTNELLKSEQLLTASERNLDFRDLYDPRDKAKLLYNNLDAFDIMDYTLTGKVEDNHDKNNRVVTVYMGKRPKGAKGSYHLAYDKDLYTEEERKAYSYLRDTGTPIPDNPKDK
As to the kind of experiment: S. pyogenes streptokinase expression inhibitors, potency, dose response, plasminogen activation absorbance, OD405 (AID 1914).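 Further: secreted streptokinase activity via plasminogen activation per viability signal from cell pellet.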 Format: functional, Streptococcus pyogenes M1 GAS.

Experiment [10] deals with T3, Corticotropin-releasing factor receptor 2/Corticotropin-releasing factor-binding protein (Homo sapiens, UniProt P24387+Q13324).
T3 sequence (Q13324 whole entry): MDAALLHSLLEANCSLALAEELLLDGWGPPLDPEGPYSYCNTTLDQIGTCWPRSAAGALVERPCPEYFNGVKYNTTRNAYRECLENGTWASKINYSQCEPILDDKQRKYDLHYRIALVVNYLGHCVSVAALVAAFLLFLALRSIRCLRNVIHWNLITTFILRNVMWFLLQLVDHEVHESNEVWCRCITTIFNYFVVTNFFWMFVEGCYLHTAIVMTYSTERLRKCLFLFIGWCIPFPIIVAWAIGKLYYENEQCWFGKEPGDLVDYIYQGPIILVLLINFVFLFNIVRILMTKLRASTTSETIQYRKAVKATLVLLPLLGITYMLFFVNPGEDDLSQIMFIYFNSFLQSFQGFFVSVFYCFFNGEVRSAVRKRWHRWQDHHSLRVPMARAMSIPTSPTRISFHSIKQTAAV
T3 sequence (P24387 whole entry): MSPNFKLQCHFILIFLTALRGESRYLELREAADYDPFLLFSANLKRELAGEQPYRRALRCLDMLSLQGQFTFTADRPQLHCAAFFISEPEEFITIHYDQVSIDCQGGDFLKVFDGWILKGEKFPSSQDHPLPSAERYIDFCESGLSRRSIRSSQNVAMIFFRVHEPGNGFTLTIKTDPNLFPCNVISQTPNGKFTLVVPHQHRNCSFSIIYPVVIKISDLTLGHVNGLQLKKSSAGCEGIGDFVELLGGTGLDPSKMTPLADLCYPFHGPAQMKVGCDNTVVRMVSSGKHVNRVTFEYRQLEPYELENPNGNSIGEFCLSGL
As to the kind of experiment: activators of CRF receptor 2 with binding protein – uHTS hits, confirmation (AID 602473). Format: functional. To be noted: read-out: EC50_Mean.

Consider `CC(=O)O[C@H]1CC[C@@]2(C)[C@@H](CC[C@@H]3[C@@H]2CC[C@]2(C)[C@@H](C(C)(C)O)C[C@@H]32)C1`, for which the cytotoxic concentration (CC50) in experiment [1] was 36.9 µM (active).

Turning to `COc1cc(CN(C2CCCCC2C)S(=O)(=O)c2ccc(S(=O)(=O)NC3CC3)cc2)cc(OC)c1OC` (centres undefined), the EC50 is > 120 µM (not active) in experiment [2], > 120 µM (not active) in [3] and 103 µM (active) in experiment [4].

On to `COc1ccc(OC)c(NC(=O)CSCC(=O)O)c1`, for which the EC50 in experiment [5] is listed as > 195 µM (not active).

For `COC(=O)c1cnc(Oc2ccc(NC(=O)NC(=O)c3c(OC)cccc3OC)cc2)cc1C(F)(F)F`, the EC50 in [2] is 0.111 µM (active); in [3], 0.142 µM (active); in experiment [4] it was 0.293 µM (active).

With `Cc1ccccc1C1=Nc2c(c(=O)n(C)c(=O)n2C)C(C(F)(F)F)(C(F)(F)F)N1`, the CC50 in experiment [1] is > 50 µM (active).

`CCCCn1cc(S(=O)(=O)c2ccccc2)c(=O)c2cc(C)ccc21`: the EC50 in experiment [5] is > 195 µM (not active).

For the compound `C#CCN1C(C)=C(C(=O)OC)C(c2cccc([N+](=O)[O-])c2)C(C(=O)OCC)=C1C` (centres undefined), in [1], the CC50 was 24.8 µM (active).

As to `COc1cc(C(C)=O)ccc1OCc1cc(C(=O)N(C)CCC2CCCCO2)no1` (centres undefined), the EC50 was 80.8 µM (active) in experiment [6], 0.831 µM (active) in experiment [7] and 7.86 µM (active) in the experiment with H4.

For the compound `CCN(CC)CCSc1nnc2c3ccccc3n(CCc3ccccc3)c2n1`, the EC50 in experiment [6] is 16.1 µM (active); in experiment [7] it was > 120 µM (not active); in the experiment with H4 it was > 120 µM (not active).

In the case of `CCOC(=O)Cc1csc(NC(=O)c2ccc(S(=O)(=O)N3CCCCC3)cc2)n1`, the cytotoxic concentration (CC50) in experiment [1] is 11.5 µM (active).

For the compound `Cc1ccc(-c2nnc(SCC#CCOC(=O)c3cccs3)o2)cc1`, the EC50 in experiment [6] was 37.3 µM (active); in experiment [7], 8.34 µM (active); in the experiment with H4, 13.8 µM (active).

Take `O=C(Nc1cccc(-c2cn3c(n2)SCC3)c1)c1ccc(Br)o1`: the EC50 in experiment [8] was > 150 µM (inconclusive).

Turning to `CSc1c(CC(=O)Nc2ccccc2)n(C)c2ccccc12`, the EC50 was 0.344 µM (inconclusive) in experiment [2], > 120 µM (not active) in [3] and > 120 µM (not active) in [4].

Consider `COc1ccc2nc(-n3c(C)ccc3C)sc2c1`, for which the EC50 is 8.93 µM (active) in experiment [6]; > 150 µM (not active) with Streptococcus; 38 µM (active) in experiment [7]; > 150 µM (not active) in experiment [9]; > 150 µM (not active) at Streptokinase A; 60.8 µM (active) in the experiment on H4.

For `Cc1c(Cl)ccc2c(C(=O)NC(C)c3ccncc3)cc(-c3ccncc3)nc12` (centres undefined), the CC50 in [1] was 25.1 µM (active).

With `OCCCNc1nc(-c2ccc(Cl)cc2)nc2ccccc12`, the CC50 in experiment [1] is > 50 µM (active).

Consider `COc1nc(-c2ccccc2)cc(-c2ccc3c(c2)OCO3)c1C#N`, for which the EC50 in [2] is 3.63 µM (active); in experiment [3], 27.6 µM (active); in [4], 11.2 µM (inconclusive).

`CC(=O)COc1ccc2c3c(c(=O)oc2c1C)CCCCC3`: the results for the EC50 (in experiment [6]; in [7]; with H4) were 38.4 µM (active), 28.8 µM (active) and > 120 µM (not active), respectively.

For the compound `CCOC(=O)C1CCCN(Cc2cc(=O)oc3cc(C)c(C(C)C)cc23)C1` (centres undefined), in experiment [1], the CC50 was 31.3 µM (active).

In the case of `Nc1n[nH]c(-c2cccc([N+](=O)[O-])c2)n1`, in [8], the EC50 was > 150 µM (inactive).

For `CCCCc1c(C)nn(-c2nnc3c4ccccc4n(CC)c3n2)c1C`, the results for the EC50 (with Streptococcus; in [9]; at Streptokinase A) were > 150 µM (not active), 4.61 µM (active) and > 150 µM (not active), respectively. Moreover, the CC50 in experiment [1] is 5.26 µM (active).

In the case of `COc1cccc(N2CCN(CC(=O)c3c[nH]c4ccc(OC)cc34)CC2C)c1` (centres undefined), the CC50 in [1] is 38.1 µM (active).

As to `Cc1ccc(N(CC(=O)NCCSc2nc3ccccc3s2)S(=O)(=O)c2ccccc2)c(C)c1`, the EC50 in [2] was 14.8 µM (active); in experiment [3] it was > 120 µM (not active); in experiment [4] it was > 120 µM (not active).

Turning to `Cc1c(C(=O)Nc2nnc(C(F)(F)F)s2)oc2ccccc12`, the EC50 in experiment [6] was 6.63 µM (active); in experiment [7], 3.22 µM (active); with H4, 72.7 µM (active).

Consider `Cc1[nH]c2ccc(C(=O)OC(C)C(=O)NC3CCCCC3C)cc2c1C` (centres undefined), for which the CC50 in experiment [1] is 12.1 µM (active).

Turning to `Fc1cccc(/C=N/NC(=S)Nc2ccccc2Cl)c1`, the EC50 was 4.14 µM (active) in experiment [6], 19.6 µM (active) in experiment [7] and > 120 µM (not active) in the experiment on H4.

On to `CN(Cc1ccsc1)C(=O)Cn1cc(Br)ccc1=O`, for which the EC50 in experiment [6] is 8.64 µM (active); in experiment [7], > 120 µM (not active); in the experiment with H4, 31.7 µM (active).

As to `Cn1c(-c2ccsc2)c(-c2cccs2)c2cc(-c3cccc4[nH]ccc34)ccc21`, the CC50 in [1] was 32.1 µM (active).

With `CCOc1cc(-c2cc(-c3ccc(C)cc3)nc(N)c2C#N)ccc1O`, the EC50 was 10.7 µM (active) in [2], > 120 µM (not active) in [3] and 14.7 µM (active) in [4].

In the case of `CCOC(=O)C1(CCc2ccccc2)CCN(C(=O)CCn2cncn2)CC1`, the EC50 in [6] is 12 µM (active); in experiment [7], 28.8 µM (active); in the experiment on H4 it was 7.67 µM (active).

`COCC1CCN(Cc2nc(-c3ccc4c(c3)OCO4)no2)C1` (centres undefined): the EC50 in [10] was > 53 µM (inactive); in experiment [6], 13.1 µM (active); in experiment [7] it was 10.1 µM (active); with H4, 45 µM (active).

Regarding `O=S(=O)(c1cccc(-c2nnc(SCc3nc4ccccc4s3)o2)c1)N1CCOCC1`, the EC50 in experiment [6] is 21.4 µM (active); in experiment [7], 5.25 µM (active); in the experiment on H4, > 120 µM (not active).

Turning to `O=C(c1ccccc1Cl)N1N=C(c2ccc(Br)cc2)CC1c1nc2ccccc2[nH]1` (centres undefined), in [1], the CC50 was 14.3 µM (active).
